In ChEMBL document CHEMBL1201862, “PubChem BioAssay data set” (2004):
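Dose response: 5 concentrations. Exposure: 48 h. Format: 96-well plates. Endpoint: linear interpolation; highest concentration if not reached. GI50 marks 50% less growth.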 The source made the active and inactive calls. Rule as the data show it: active = GI50 up to about 1.1 µM and inactive = higher.

Key:
Assay in all cases: DTP human tumour cell line panel, 48 h
786-0 = tested on: 786-0
A498 = tested on: A498
A549 = tested on: A549
ACHN = tested on: ACHN
BT-549 = tested on: BT-549
CAKI-1 = tested on: CAKI-1
COLO 205 = tested on: COLO 205
DU-145 = tested on: DU-145
EKVX = tested on: EKVX
HCC 2998 = tested on: HCC 2998
HCT-116 = tested on: HCT-116
HCT-15 = tested on: HCT-15
HOP-62 = tested on: HOP-62
HOP-92 = tested on: HOP-92
HT-29 = tested on: HT-29
Hs-578T = tested on: Hs-578T
IGROV-1 = tested on: IGROV-1
K562 = tested on: K562
KM12 = tested on: KM12
LOX IMVI = tested on: LOX IMVI
M14 = tested on: M14
MCF7 = tested on: MCF7
MDA-MB-231 = tested on: MDA-MB-231
MDA-MB-435 = tested on: MDA-MB-435
MDA-N = tested on: MDA-N
MOLT-4 = tested on: MOLT-4
Malme-3M = tested on: Malme-3M
NCI-H226 = tested on: NCI-H226
NCI-H23 = tested on: NCI-H23
NCI-H460 = tested on: NCI-H460
NCI-H522 = tested on: NCI-H522
NCI/ADR-RES = tested on: NCI/ADR-RES
OVCAR-3 = tested on: OVCAR-3
OVCAR-4 = tested on: OVCAR-4
OVCAR-5 = tested on: OVCAR-5
OVCAR-8 = tested on: OVCAR-8
PC-3 = tested on: PC-3
RPMI-8226 = tested on: RPMI-8226
RXF 393 = tested on: RXF 393
SF-268 = tested on: SF-268
SF-295 = tested on: SF-295
SF-539 = tested on: SF-539
SK-MEL-28 = tested on: SK-MEL-28
SK-MEL-2 = tested on: SK-MEL-2
SK-MEL-5 = tested on: SK-MEL-5
SN12C = tested on: SN12C
SNB-19 = tested on: SNB-19
SNB-75 = tested on: SNB-75
SR = tested on: SR
SW-620 = tested on: SW-620
T47D = tested on: T47D
TK-10 = tested on: TK-10
U-251 = tested on: U-251
UACC-257 = tested on: UACC-257
UACC-62 = tested on: UACC-62
UO-31 = tested on: UO-31
CCRF-CEM = tested on: CCRF-CEM
HL-60 = tested on: HL-60
SK-OV-3 = tested on: SK-OV-3

`Cc1cc2ccccc2c[n+]1CC(O)C[n+]1cc2ccccc2cc1C` was tested, and the GI50 (786-0) was > 100 µM (inactive), the GI50 (A498) was > 100 µM (inactive) and the GI50 (A549) was > 100 µM (inactive). The GI50 (ACHN) was > 100 µM (inactive), the GI50 (BT-549) was > 100 µM (inactive) and the GI50 (CAKI-1) was > 100 µM (inactive). For the same compound, the GI50 (COLO 205) was > 100 µM (inactive), the GI50 (DU-145) was > 100 µM (inactive) and the GI50 (EKVX) was > 100 µM (inactive). The GI50 (HCC 2998) was > 100 µM (inactive), the GI50 (HCT-116) was > 100 µM (inactive) and the GI50 (HCT-15) was greater than 100 µM. The GI50 (HOP-62) was 82.6 µM (inactive), the GI50 (HOP-92) was > 100 µM (inactive) and the GI50 (HT-29) was > 100 µM (inactive). For the same compound, the GI50 (Hs-578T) was > 100 µM (inactive), the GI50 (IGROV-1) was > 100 µM (inactive) and the GI50 (K562) was > 100 µM (inactive). For the same compound, the GI50 (KM12) was > 100 µM (inactive), the GI50 (LOX IMVI) was > 100 µM (inactive) and the GI50 (M14) was > 100 µM (inactive). For the same compound, the GI50 (MCF7) was > 100 µM (inactive), the GI50 (MDA-MB-231) was > 100 µM (inactive) and the GI50 (MDA-MB-435) was > 100 µM (inactive). The GI50 (MDA-N) was > 100 µM (inactive), the GI50 (MOLT-4) was > 100 µM (inactive) and the GI50 (Malme-3M) was > 100 µM (inactive). The GI50 (NCI-H226) was > 100 µM (inactive), the GI50 (NCI-H23) was > 100 µM (inactive) and the GI50 (NCI-H460) was > 100 µM (inactive). For the same compound, the GI50 (NCI-H522) was > 100 µM (inactive), the GI50 (NCI/ADR-RES) was > 100 µM (inactive) and the GI50 (OVCAR-3) was 51.6 µM (inactive). The GI50 (OVCAR-4) was > 100 µM (inactive), the GI50 (OVCAR-5) was > 100 µM (inactive) and the GI50 (OVCAR-8) was > 100 µM (inactive). The GI50 (PC-3) was > 100 µM (inactive), the GI50 (RPMI-8226) was > 100 µM (inactive) and the GI50 (RXF 393) was > 100 µM (inactive). For the same compound, the GI50 (SF-268) was > 100 µM (inactive), the GI50 (SF-295) was 20.1 µM (inactive) and the GI50 (SF-539) was > 100 µM (inactive). The GI50 (SK-MEL-28) was > 100 µM (inactive), the GI50 (SK-MEL-2) was > 100 µM (inactive) and the GI50 (SK-MEL-5) was > 100 µM (inactive). For the same compound, the GI50 (SN12C) was > 100 µM (inactive), the GI50 (SNB-19) was > 100 µM (inactive) and the GI50 (SNB-75) was > 100 µM (inactive). The GI50 (SR) was > 100 µM (inactive), the GI50 (SW-620) was > 100 µM (inactive) and the GI50 (T47D) was > 100 µM (inactive). The GI50 (TK-10) was > 100 µM (inactive), the GI50 (U-251) was > 100 µM (inactive) and the GI50 (UACC-257) was > 100 µM (inactive). The GI50 (UACC-62) was > 100 µM (inactive) and the GI50 (UO-31) was > 100 µM (inactive).

For `CC/C=C/C[C@H](O)[C@H]1C[C@H]2O[C@H](CC(=O)OC)C[C@H]2O1`, the GI50 (786-0) was > 100 µM (inactive), the GI50 (A498) was > 100 µM (inactive) and the GI50 (A549) was > 100 µM (inactive). The GI50 (ACHN) was > 100 µM (inactive), the GI50 (BT-549) was > 100 µM (inactive) and the GI50 (CAKI-1) was > 100 µM (inactive). The GI50 (CCRF-CEM) was > 100 µM (inactive), the GI50 (COLO 205) was > 100 µM (inactive) and the GI50 (DU-145) was > 100 µM (inactive). For the same compound, the GI50 (EKVX) was > 100 µM (inactive), the GI50 (HCC 2998) was > 100 µM (inactive) and the GI50 (HCT-116) was > 100 µM (inactive). The GI50 (HCT-15) was greater than 100 µM, the GI50 (HL-60) was > 100 µM (inactive) and the GI50 (HOP-62) was > 100 µM (inactive). For the same compound, the GI50 (HT-29) was > 100 µM (inactive), the GI50 (Hs-578T) was > 100 µM (inactive) and the GI50 (IGROV-1) was > 100 µM (inactive). The GI50 (K562) was > 100 µM (inactive), the GI50 (KM12) was > 100 µM (inactive) and the GI50 (LOX IMVI) was > 100 µM (inactive). For the same compound, the GI50 (M14) was > 100 µM (inactive), the GI50 (MCF7) was > 100 µM (inactive) and the GI50 (MDA-MB-231) was > 100 µM (inactive). For the same compound, the GI50 (MDA-MB-435) was > 100 µM (inactive), the GI50 (MDA-N) was > 100 µM (inactive) and the GI50 (MOLT-4) was > 100 µM (inactive). The GI50 (Malme-3M) was > 100 µM (inactive), the GI50 (NCI-H226) was > 100 µM (inactive) and the GI50 (NCI-H23) was > 100 µM (inactive). The GI50 (NCI-H460) was > 100 µM (inactive), the GI50 (NCI-H522) was > 100 µM (inactive) and the GI50 (NCI/ADR-RES) was > 100 µM (inactive). The GI50 (OVCAR-3) was > 100 µM (inactive), the GI50 (OVCAR-4) was > 100 µM (inactive) and the GI50 (OVCAR-5) was > 100 µM (inactive). For the same compound, the GI50 (OVCAR-8) was > 100 µM (inactive), the GI50 (PC-3) was > 100 µM (inactive) and the GI50 (RPMI-8226) was > 100 µM (inactive). For the same compound, the GI50 (RXF 393) was > 100 µM (inactive), the GI50 (SF-268) was > 100 µM (inactive) and the GI50 (SF-295) was > 100 µM (inactive). The GI50 (SK-MEL-28) was > 100 µM (inactive), the GI50 (SK-MEL-2) was > 100 µM (inactive) and the GI50 (SK-MEL-5) was > 100 µM (inactive). The GI50 (SK-OV-3) was > 100 µM (inactive), the GI50 (SN12C) was > 100 µM (inactive) and the GI50 (SNB-19) was > 100 µM (inactive). For the same compound, the GI50 (SNB-75) was > 100 µM (inactive), the GI50 (SR) was > 100 µM (inactive) and the GI50 (SW-620) was > 100 µM (inactive). The GI50 (T47D) was > 100 µM (inactive), the GI50 (U-251) was > 100 µM (inactive) and the GI50 (UACC-62) was > 100 µM (inactive). For the same compound, the GI50 (UO-31) was > 100 µM (inactive).

For `O=c1cc(O)c2ccccc2o1` [4-HYDROXYCOUMARINS], the GI50 (786-0) was > 100 µM (inactive), the GI50 (A498) was > 100 µM (inactive) and the GI50 (A549) was > 100 µM (inactive). For the same compound, the GI50 (ACHN) was > 100 µM (inactive), the GI50 (BT-549) was > 100 µM (inactive) and the GI50 (CAKI-1) was > 100 µM (inactive). For the same compound, the GI50 (CCRF-CEM) was > 100 µM (inactive), the GI50 (COLO 205) was > 100 µM (inactive) and the GI50 (DU-145) was > 100 µM (inactive). The GI50 (EKVX) was > 100 µM (inactive), the GI50 (HCC 2998) was > 100 µM (inactive) and the GI50 (HCT-116) was > 100 µM (inactive). For the same compound, the GI50 (HL-60) was > 100 µM (inactive), the GI50 (HOP-62) was > 100 µM (inactive) and the GI50 (HOP-92) was > 100 µM (inactive). The GI50 (HT-29) was > 100 µM (inactive), the GI50 (Hs-578T) was > 100 µM (inactive) and the GI50 (IGROV-1) was > 100 µM (inactive). The GI50 (K562) was > 100 µM (inactive), the GI50 (KM12) was > 100 µM (inactive) and the GI50 (LOX IMVI) was > 100 µM (inactive). The GI50 (M14) was > 100 µM (inactive), the GI50 (MCF7) was > 100 µM (inactive) and the GI50 (MDA-MB-231) was > 100 µM (inactive). For the same compound, the GI50 (MDA-MB-435) was > 100 µM (inactive), the GI50 (MDA-N) was > 100 µM (inactive) and the GI50 (MOLT-4) was > 100 µM (inactive). The GI50 (Malme-3M) was > 100 µM (inactive), the GI50 (NCI-H226) was > 100 µM (inactive) and the GI50 (NCI-H23) was > 100 µM (inactive). For the same compound, the GI50 (NCI-H460) was > 100 µM (inactive), the GI50 (NCI-H522) was > 100 µM (inactive) and the GI50 (NCI/ADR-RES) was > 100 µM (inactive). The GI50 (OVCAR-3) was > 100 µM (inactive), the GI50 (OVCAR-4) was > 100 µM (inactive) and the GI50 (OVCAR-5) was > 100 µM (inactive). The GI50 (OVCAR-8) was > 100 µM (inactive), the GI50 (PC-3) was > 100 µM (inactive) and the GI50 (RPMI-8226) was > 100 µM (inactive). The GI50 (RXF 393) was > 100 µM (inactive), the GI50 (SF-268) was > 100 µM (inactive) and the GI50 (SF-295) was > 100 µM (inactive). For the same compound, the GI50 (SF-539) was > 100 µM (inactive), the GI50 (SK-MEL-28) was > 100 µM (inactive) and the GI50 (SK-MEL-5) was > 100 µM (inactive). The GI50 (SN12C) was > 100 µM (inactive), the GI50 (SNB-19) was > 100 µM (inactive) and the GI50 (SNB-75) was > 100 µM (inactive). For the same compound, the GI50 (SR) was > 100 µM (inactive), the GI50 (SW-620) was > 100 µM (inactive) and the GI50 (T47D) was > 100 µM (inactive). The GI50 (TK-10) was > 100 µM (inactive), the GI50 (U-251) was > 100 µM (inactive) and the GI50 (UACC-257) was > 100 µM (inactive). For the same compound, the GI50 (UACC-62) was > 100 µM (inactive) and the GI50 (UO-31) was > 100 µM (inactive).
